Assay results taken from PubChem BioAssay (NCI).
“And” between values parts separate entries of the source, which are not always exact repeats. Equal entries are not always repeated.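 96-well plates; 48 h exposure; 5 concentrations. Endpoints by linear interpolation between flanking doses. Not reached: highest tested concentration assigned. At the GI50, growth is halved. TGI is the concentration that stops growth completely.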

Tests used:
Assay in all cases: NCI anticancer screen, dose series, 48 h
[1] = system: SNB-19 CNS
[2] = system: OVCAR-3 ovarian
[3] = system: UO-31 renal
[4] = system: MDA-MB-435
[5] = system: SK-MEL-2 melanoma
[6] = system: HT29 colon
[7] = system: UACC-257 melanoma
[8] = system: NCI-H23 lung
[9] = system: UACC-62 melanoma
[10] = system: SF-539 CNS

CCN1CCN(c2nc(C)cc(N(CCCNc3ccnc4cc(Cl)ccc34)Cc3ccc4c(c3)OCO4)n2)CC1
GI50 [1]: 2.98 µM
TGI [1]: 11.3 µM
GI50 [2]: 1.61 µM
TGI [2]: 3.96 µM
GI50 [3]: 1.31 µM
TGI [3]: 2.64 µM
GI50 [4]: 1.56 µM
TGI [4]: 3.06 µM
GI50 [5]: 1.83 µM
TGI [5]: 3.5 µM
GI50 [6]: 1.07 µM
TGI [6]: 2.64 µM
GI50 [7]: 1.8 µM
TGI [7]: 3.49 µM
GI50 [8]: 2.61 µM
TGI [8]: 10.1 µM
GI50 [9]: 1.81 µM
TGI [9]: 3.32 µM
GI50 [10]: 1.63 µM
TGI [10]: 3.07 µM

COc1ccc(-c2cc(-c3ccc(Nc4nc(Nc5ccccc5)nc(Nc5ccc(Cl)cc5)n4)cc3)nc(N)n2)cc1
GI50 [1]: 9.03 µM
TGI [1]: 24.6 µM
GI50 [2]: 11.3 µM
TGI [2]: > 50 µM
GI50 [3]: 8.13 µM
TGI [3]: > 50 µM
GI50 [4]: 14.5 µM
TGI [4]: > 50 µM
GI50 [5]: 13.1 µM
TGI [5]: 44.1 µM
GI50 [6]: 7.56 µM
TGI [6]: 21.8 µM
GI50 [7]: 15.9 µM
TGI [7]: 45.5 µM
GI50 [8]: 9.4 µM
TGI [8]: 25.9 µM
GI50 [9]: 12.1 µM
TGI [9]: > 50 µM
GI50 [10]: 10.3 µM
TGI [10]: 25.8 µM

COc1cc(-c2cc(/C=C/C(=O)c3ccc(F)c(F)c3)[nH]n2)cc(OC)c1OC
GI50 [1]: 3.64 µM
TGI [1]: > 100 µM
GI50 [2]: 2.39 µM
TGI [2]: 6.25 µM
GI50 [3]: 2.63 µM
TGI [3]: 14.2 µM
GI50 [4]: 2.88 µM
TGI [4]: 13.3 µM
GI50 [5]: 2.3 µM
TGI [5]: 5.89 µM
GI50 [6]: 2.62 µM
TGI [6]: 6.47 µM
GI50 [7]: 1.75 µM
TGI [7]: 6.28 µM
GI50 [8]: 2.6 µM
TGI [8]: 8.5 µM
GI50 [9]: 2.38 µM
TGI [9]: 7.44 µM
GI50 [10]: 3.76 µM
TGI [10]: 17.7 µM

CC1CC2C3CCC4=CC(=O)C=CC4(C)C3(F)C(O)CC2(C)C1(O)C(=O)COP(=O)(O)O (configuration not stated)
GI50 [1]: > 500 µM
TGI [1]: > 500 µM
GI50 [2]: > 500 µM
TGI [2]: > 500 µM
GI50 [3]: > 500 µM
TGI [3]: > 500 µM
GI50 [4]: > 500 µM
TGI [4]: > 500 µM
GI50 [5]: > 500 µM
TGI [5]: > 500 µM
GI50 [6]: > 500 µM
TGI [6]: > 500 µM
GI50 [7]: > 500 µM
TGI [7]: > 500 µM
GI50 [8]: > 500 µM
TGI [8]: > 500 µM
GI50 [9]: > 500 µM
TGI [9]: > 500 µM
GI50 [10]: > 500 µM
TGI [10]: > 500 µM

CCOC(=O)c1c(-c2ccccc2)[n+](=O)c2cc(Cl)c(Cl)cc2n1[O-]
GI50 [1]: 17.7 µM
TGI [1]: 35.1 µM
GI50 [2]: 1.8 µM
TGI [2]: 4.41 µM
GI50 [3]: 3.03 µM
TGI [3]: > 100 µM
GI50 [4]: 5.36 µM
TGI [4]: 19 µM
GI50 [5]: 18.9 µM
TGI [5]: > 100 µM
GI50 [6]: 12 µM
TGI [6]: 36.3 µM
GI50 [7]: 2.61 µM
TGI [7]: 8.41 µM
GI50 [8]: 10.1 µM
TGI [8]: 25.8 µM
GI50 [9]: 5.11 µM
TGI [9]: 22.6 µM
GI50 [10]: 15.5 µM
TGI [10]: 32 µM

COC(=O)NC1C(C)OC(OC2C/C=C(/C)C3C=CC4C(OC5CC(OC6CCC(OC7CC(O)C(OC8CCC(O)C(C)O8)C(C)O7)C(C)O6)C(OC(C)=O)C(C)O5)C(C)CC(C)C4C3(C)/C(O)=C3/C(=O)OC4(CC(C=O)=CC(O)C4/C=C\2C)C3=O)CC1(C)[N+](=O)[O-] (configuration not stated)
GI50 [1]: 0.0728 µM
TGI [1]: 3.45 µM and 0.509 µM
GI50 [2]: 0.484 µM
TGI [2]: 2.7 µM and 2.12 µM
GI50 [3]: 0.254 µM
TGI [3]: 3.76 µM and 0.521 µM
TGI [4]: 1.06 µM
GI50 [5]: 0.0551 µM
GI50 [6]: 0.352 µM
TGI [6]: 2.61 µM and 12.8 µM
GI50 [7]: 1.09 µM
TGI [7]: 2.47 µM and 11.1 µM
GI50 [8]: 0.171 µM
TGI [8]: 2.22 µM and 0.403 µM
GI50 [9]: 0.155 µM
TGI [9]: 1.47 µM and 0.319 µM
GI50 [10]: 0.0287 µM

c1ccc(-c2oc(-c3ccccc3)c(CN3CCCCC3)c2CN2CCCCC2)cc1
GI50 [1]: 2.64 µM
TGI [1]: 8.72 µM
GI50 [2]: 2.92 µM
TGI [2]: 10.5 µM
GI50 [3]: 2.13 µM
TGI [3]: 11.1 µM
GI50 [4]: 2.73 µM
TGI [4]: 10.6 µM
GI50 [5]: 3.72 µM
TGI [5]: 15.7 µM
GI50 [6]: 1.27 µM
TGI [6]: 13.3 µM
GI50 [7]: 3 µM
TGI [7]: 8.08 µM
GI50 [8]: 3.21 µM
TGI [8]: 13 µM
GI50 [9]: 1.79 µM
TGI [9]: 4.35 µM
GI50 [10]: 1.68 µM
TGI [10]: 3.47 µM

Cn1cc(/C=C\[N+](=O)[O-])c2ccccc21
GI50 [1]: 75 µM
TGI [1]: > 100 µM
GI50 [2]: 28.1 µM
TGI [2]: > 100 µM
GI50 [3]: > 100 µM
TGI [3]: > 100 µM
GI50 [4]: 27.7 µM
TGI [4]: 84.7 µM
GI50 [5]: > 100 µM
TGI [5]: > 100 µM
GI50 [6]: 21.4 µM
TGI [6]: 39.8 µM
GI50 [7]: 33.1 µM
TGI [7]: > 100 µM
GI50 [8]: 74.7 µM
TGI [8]: > 100 µM
GI50 [9]: 83.6 µM
TGI [9]: > 100 µM
GI50 [10]: 23.5 µM
TGI [10]: 49.1 µM

Oc1ccc(Cl)cc1C(c1cc(Cl)ccc1O)C(Cl)(Cl)Cl
GI50 [1]: 3.24 µM
TGI [1]: 10.8 µM
GI50 [2]: 1.92 µM
TGI [2]: 4.23 µM
GI50 [3]: 1.5 µM
TGI [3]: 4.78 µM
GI50 [4]: 1.95 µM
TGI [4]: 4.21 µM
GI50 [5]: 2.12 µM
TGI [5]: 5.36 µM
GI50 [6]: 2.05 µM
TGI [6]: 4 µM
GI50 [7]: 2.68 µM
TGI [7]: 10.3 µM
GI50 [8]: 1.73 µM
TGI [8]: 3.96 µM
GI50 [9]: 1.59 µM
TGI [9]: 3.82 µM
GI50 [10]: 1.69 µM
TGI [10]: 3.67 µM
